This is an account of results in patent US6184252A, “2-amino-1,3-alkanediol compositions for inducing/stimulating hair growth and/or retarding hair loss” (priority 1996, dated 2001).

Like-named read-outs stand apart in the source and are kept apart here.

Holding throughout (type): cell-based
Series [1] deals with HaCat cells (cultured keratinocytes). The series can be described thus: Proliferative influence on cultured keratinocytes (cell counting with Coulter Counter). Conditions: Homo sapiens, 120 h, 5 days, read-out: increase in the number of cells with respect to the control; for activation at 0.0005 µM: 0.5 nM; for activation at 0.005 µM: 5 nM; for activation at 0.05 µM: 50 nM; for activation at 0.5 µM: 500 nM. As for the experimental part:
Measurement of the Proliferative Influence of 2-amino-1,3-octadecanediol and Derivatives Thereof on Cultured Keratinocytes
HaCat cells (Boukamp and coworkers, J. Cell Biol., vol. 106, March 1988, 761-771) were cultured in DMEM medium (marketed by Gibco) containing amino acids (mixture of nonessential amino acids) at a concentration of 0.1 mM, penicillin and streptomycin at respective concentrations of 50 International Units per […] and of 50 μg/ml, glutamine at a concentration of 2 mM, sodium pyruvate at a concentration of 1 mM and 10% fetal calf serum. These cells were inoculated at a density of 10,000 cells per well in the 24 wells of plates of the multiwell type (Costar, France). 24 hours after inoculation, the cells were contacted with the various test compounds in a KBM medium (marketed by Clonetics) containing 0.15 mM of calcium ion, insulin at 5 μg/ml, hydrocortisone at 0.5 μg/ml and lipid-free bovine serum albumin at 1 μg/ml.
Cellular counting was carried out 5 days after the addition of the various ceramides using a cell counter of the Coulter Counter type.
The various compounds were tested at 0.5 nM, 5 nM, 50 nM and 500 nM.
The results, expressed as percentage, represent the increase in the number of cells with respect to the control, namely, with respect to a culture produced under the same conditions in the absence of sphinganine.

For series [2] the test system is unchanged. The series can be described thus: Cell viability (mitochondrial respiration, XTT kit). Conditions: for activation at 0.05 µM: Homo sapiens, HaCaT, read-out: increase in the number of cells with respect to the control (cell viability). As for the experimental part: Measurement of the Effect of 2-amino-1,3-octadecanediol and Derivatives Thereof on Cell Viability
HaCat cells were cultured as in Example 1.
(§1) These were then inoculated at a density of 20,000 cells per well in the 24 wells of plates of the multiwell type (Costar, France).
(§2) 24 hours after inoculation, the cells were contacted with the various test compounds in a KBM medium (marketed by Clonetics) containing insulin at 5 μg/ml and hydrocortisone at 0.5 μg/ml.
(§3) Cell viability was evaluated 48 hours later by measuring the mitochondrial respiration. This was carried out using an XTT kit, marketed by Boehringer, according to the supplier's instructions.
The compounds A, B and C of the above Example 1 were tested at a concentration of 50 nM, as well as a derivative based on sphingenine: N-palmitoylsphingenine marketeed by Sigma (C16H).

For series [3], the system named is HaCat cells (keratinocytes). Briefly: Effect on the cell cycle (BrdU incorporation, entry into S phase). Conditions: 50 nM; for activation at 0.05 µM: Homo sapiens, HaCaT, read-out: increase in the number of cells which have entered into the S phase with respect to the control. How it is done:
Measurement of the Effect of 2-amino-1,3-octadecanediol and Derivatives Thereof on the Cell Cycle
HaCat cells were cultured as above.
as §1
24 hours after inoculation, the cells were contacted with the various test compounds in a KBM medium (marketed by Clonetics) containing insulin at 5 μg/ml and hydrocortisone at 0.5 μg/ml and 5-bromo-2'-deoxyuridine (BrdU) at 1 μM.
[…] This was carried out using a BrdU fast kit, marketed by Boehringer, according to the supplier's instructions.
The compounds A, B and C of the above example were tested at a concentration of 50 nM.
The results, expressed as percentage, represent the increase in the number of cells which have entered into the S phase with respect to the control, namely, with respect to a culture produced under the same conditions in the absence of alkanediol compounds.
(Incorporation of labelled thymidine or its analogues reports DNA synthesis.)

The test system of a further series is hair follicle. The series can be described thus: Survival of the hair follicle in vitro. Conditions: Homo sapiens, read-out: percentage of surviving follicles. As for the experimental part:
Viable in vitro hair follicles were prepared according to the technique described in FR-95/08,465, filed Jul. 12, 1995 and assigned to the assignee hereof. From a scalp biopsy, a rather fine strip of scalp was isolated using a scalpel. The adipose tissue surrounding the follicles was removed with microforceps while avoiding damage to the hair bulb. The follicle was cut and removed with a scalpel under a microscope in order to separate it from its epidermal and dermal surroundings. The fragment obtained was maintained in culture in Williams E medium, at 37° C., in a humid atmosphere in the presence of CO2. The survival of the follicles was evaluated each day by counting the living follicles, according to their morphological appearance. The results are reported as percentage of surviving follicles per day. The experiment was carried out employing the following compounds at a concentration of 50 nM: in comparison with the culture medium without alkanediol (A).

Series [4] deals with HaCat cells. The series can be described thus: Cell viability in the presence of doxorubicin (XTT kit). Conditions: for increase in the number of cells with respect to the control (A): read at 48 hours. As for the experimental part: Effect of 2-amino-1,3-octadecanediol and Derivatives Thereof on Cell Viability in the Presence of Doxorubicin
HaCat cells were cultured as in Example 2.
as §2
The cells were cultured in the presence of the 2-amino-1,3-octadecanediol to be tested until evaluation of cell viability.
Doxorubicin at a concentration of 1 μg/ml was added to the culture medium for 2 hours at the beginning of the experiment.
as §3
(§4) The experiment was carried out with the following compounds at a concentration of 50 nM:
in comparison with the culture medium without alkanediol and without doxorubicin (A) and with a medium containing only doxorubicin (B).
The results, expressed as percentage, represent the increase in the number of cells with respect to the control (A), namely, with respect to a culture produced under the same conditions in the absence of alkanediol compounds and of doxorubicin.

Series [5] deals with HaCat cells. How it is done:
Effect of 2-amino-1,3-octadecanediol and Derivatives Thereof on Cell Viability in the Presence of a Compound Based on Sphingenine, N-acetylsphingenine
The cells were cultured as in Example 5. N-Acetylsphingenine was at a concentration of 10 μM.
as §4
in comparison with the culture medium without alkanediol and without N-acetylsphingenine (A) and with a medium containing only N-acetylsphingenine (B).
The results, expressed as percentage, represent the number of cells with respect to the control (A), namely, with respect to a culture produced under the same conditions in the absence of alkanediol compounds and of N-acetylsphingenine.

Setting [6] is: alkanediol 50 nM in presence of doxorubicin 1 μg/ml for 2 hours.

`CCCCCCCCCCCCCCCC(O)C(N)CO` (stereo not drawn) [A, 2-amino-1,3-octadecanediol]: in series [1], the activation at 0.0005 µM stood at 7%. Besides, the activation at 0.005 µM in series [1] was 15%. Also, the activation at 0.05 µM in series [1] amounted to 17%; in series [2] (50 nM, 48 hours) it was 17%; in series [3] (72 hours), 36%; in series [3] (96 hours), 41%. Besides, the activation at 0.5 µM in series [1] was found to be 30%. Moreover, the “viability of the cultured keratinocytes (in words)” value in series [2] (50 nM, 48 hours) is reported as “increased the viability of the cultured keratinocytes”. For the same compound, the “number of keratinocytes which have entered into the S phase (in words)” value (“number … (in words)” below) in series [3] is on record as “increase the number of keratinocytes which have entered into the S phase”. For the same compound, the viability at 0.05 µM is 100% in the series on hair follicle (0 h, 50 nM, day 0); 100% in the series on hair follicle (24 h, 50 nM, day 1); 90% in the series on hair follicle (120 h, 50 nM, day 5); 20% in the series with hair follicle (240 h, 50 nM, day 10); 0% in the series with hair follicle (360 h, 50 nM, day 15); 0% in the series on hair follicle (480 h, 50 nM, day 20). In addition, in the series on hair follicle (600 h, 50 nM, day 25), the viability at 0.05 µM turned out to be 0%. The “increase in the number of cells with respect to the control (A)” value (“increase in the number of cells … (A)” for short) in the series on HaCat cells [4] (setting [6]) is given as “+25%”.

As to `CCCCCCCC/C=C\CCCCCCCC(=O)NC(CO)C(O)CCCCCCCCCCCCCCC` (stereo not drawn) [B, 2-oleoylamino-1,3-octadecanediol], the activation at 0.0005 µM in series [1] came out at 17%. Besides, in series [1], the activation at 0.005 µM was 24%. Besides, the activation at 0.05 µM in series [1] stood at 23%; in series [2] (48 h) it was 23%; in series [3] (72 hours) it was 43%; in series [3] (96 hours), 51%. Moreover, the activation at 0.5 µM in series [1] came to 14%. Also, the “viability of the cultured keratinocytes (in words)” value in series [2] (50 nM, 48 hours) is given as “increased the viability of the cultured keratinocytes”. Further, the “number … (in words)” value in series [3] is listed as “increase the number of keratinocytes which have entered into the S phase”. Besides, the viability at 0.05 µM stood at 100% with hair follicle (0 h); 100% in the series on hair follicle (24 h); 100% with hair follicle (120 h); 78% in the series with hair follicle (240 h); 33% in the series with hair follicle (360 h); 0% in the series with hair follicle (480 h). The viability at 0.05 µM with hair follicle (600 h) was 0%. The “increase in the number of cells … (A)” value in the series on HaCat cells [4] (setting [6]) is on record as “+28%”.

Turning to `CCCCCCCCCCCCCCCC(O)C(CO)NC(=O)C(O)CCCCCCCCCCCCCC` (stereo not drawn) [C, 2-N-(2-hydroxyhexadecanoyl)amino-1,3-octadecanediol], the activation at 0.0005 µM in series [1] came out at 26%. The activation at 0.005 µM in series [1] turned out to be 36%. Further, the activation at 0.05 µM in series [1] turned out to be 42%; in series [2] (50 nM, 48 hours), 20%; in series [3] (72 hours), 17%; in series [3] (96 hours) it was 43%. For the same compound, in series [1], the activation at 0.5 µM stood at 22%. Moreover, the “viability of the cultured keratinocytes (in words)” value in series [2] (50 nM, 48 hours) was “increased the viability of the cultured keratinocytes”. The “number … (in words)” value in series [3] is on record as “increase the number of keratinocytes which have entered into the S phase”. Further, the viability at 0.05 µM with hair follicle (0 h, 50 nM, day 0) was 100%; in the series with hair follicle (24 h, 50 nM, day 1) it was 100%; in the series on hair follicle (120 h, 50 nM, day 5), 100%; with hair follicle (240 h, 50 nM, day 10), 50%; in the series on hair follicle (360 h, 50 nM, day 15), 42%; with hair follicle (480 h, 50 nM, day 20), 25%. Moreover, the viability at 0.05 µM with hair follicle (600 h, 50 nM, day 25) amounted to 0%. The “increase in the number of cells … (A)” value with HaCat cells [4] (setting [6]) is on record as “+23%”.

As for `CCCCCCCCCCCCC/C=C/[C@@H](O)[C@H](CO)NC(=O)CCCCCCCCCCCCCCC` [Compound C16H, N-palmitoylsphingenine, reference compound], in series [2] (50 nM, 48 hours), the “increase in the number of cells with respect to the control (cell viability)” value is -25% and the “viability of the cultured keratinocytes (in words)” value is on record as “elicited a cytotoxic effect on the cultured cells”.

Take `CCCCCCCCCCCCCCCCCCCCCCCC(=O)NC(CO)C(O)CCCCCCCCCCCCCCC` (stereo not drawn) [D, 2-tetracosanoylamino-1,3-octadecanediol]: in series [1], the activation at 0.0005 µM was determined as 22%, the activation at 0.005 µM was 27%, the activation at 0.05 µM turned out to be 33% and the activation at 0.5 µM stood at 42%.

With `COc1cccc2c1C(=O)c1c(O)c3c(c(O)c1C2=O)C[C@@](O)(C(=O)CO)C[C@@H]3O[C@H]1C[C@H](N)[C@H](O)[C@H](C)O1` [Doxorubicin, reference compound], the “cell viability in the presence of doxorubicin (in words)” value in the series on HaCat cells [4] (doxorubicin 1 μg/ml for 2 hours, alkanediol 50 nM) is on record as “caused a decrease in cell viability”. In addition, the “increase in the number of cells … (A)” value in the series on HaCat cells [4] (only doxorubicin, 1 μg/ml for 2 hours) was -20%.

Take `CCCCCCCCCCCCCCCC(O)C(CO)NC(C)=O` (stereo not drawn) [E, 2-acetylamino-1,3-octadecanediol]: in series [1], the activation at 0.0005 µM was found to be 17%, the activation at 0.005 µM stood at 34%, the activation at 0.05 µM was found to be 29% and the activation at 0.5 µM turned out to be 35%.

As to `CCCCCCCCCCCCCCCC(O)C(CO)NC(=O)CCCCCCC` (stereo not drawn) [F, 2-octanoylamino-1,3-octadecanediol], in series [1], the activation at 0.0005 µM is 15%, the activation at 0.005 µM is 18%, the activation at 0.05 µM came to 31% and the activation at 0.5 µM amounted to 27%.

Take `CCCCCCCCCCCCC/C=C/[C@@H](O)[C@H](CO)NC(C)=O` [N-Acetylsphingenine]: in the series with HaCat cells [5] (N-acetylsphingenine 10 μM, alkanediol 50 nM), the “cell viability in the presence of N-acetylsphingenine (in words)” value is “caused a decrease in cell viability”. Also, the “number of cells with respect to the control (A)” value in the series on HaCat cells [5] (human, hacat cells, 48 h, 10 µM) stood at 57%.
